One assay has as its target T1, PDGFR beta (Homo sapiens, UniProt P09619).
T1 construct: endogenous in cells; host or cells: HS27 human fibroblast cell line
Nature of the assay: Phospho PDGFR LICOR Cell Assay (Example B). As to conditions: averaged IC50; PDGFR beta phosphorylation in HS27 human fibroblast cell line, PDGF-BB stimulation 10 minutes, normalized to total ERK. Type of assay: cell-based. The protocol:
Compounds were screened for inhibition of PDGFR beta phosphorylation in the HS27 human fibroblast cell line. Cells were seeded into a 96 well tissue culture plate, then incubated overnight in a 37° C./5% CO2 incubator. The following day, cells were treated for one hour with test compound dilutions. After stimulation with PDGF-BB ligand for 10 minutes, cells were washed with PBS and fixed in 3.7% formaldehyde in PBS for 10 minutes. This was followed by washing in PBS/0.2% Triton X-100 and permeabilizing in 100% MeOH for 10 minutes. Cells were incubated in blocking buffer for 1 hour. Antibodies to phosphorylated PDGFRβ and total ERK were added to the cells and incubated for 3 hours. After washing with PBS/0.2% Triton X-100, the cells were incubated with fluorescently-labeled secondary antibodies for an additional hour. Cells were then washed with PBS and analyzed for fluorescence at both wavelengths using the Odyssey Infrared Imaging System (LI-COR Biosciences). Phosphorylated PDGFR signal was normalized to total ERK signal. A standard 4-parameter logistic model was fit to the inhibitor dose response curves, with the IC50 being defined as the concentration of inhibitor giving 50 percent of control (POC).

Another assay addresses T2, cFMS (Homo sapiens, UniProt P07333).
T2 construct: THP-1 cells (human acute monocytic leukemia cell line) were serum-starved for 4 hours; endogenous in cells; host or cells: THP-1 cells (human acute monocytic leukemia cell line)
In words: cFMS Cell-Based Assay (Example C). To be noted: averaged IC50; phospho-cFMS in THP-1 cells stimulated with 250 ng/mL recombinant human MCSF; read-out: cFMS Cell ELISA IC50. As to the method: The ability of compounds of Formula I to inhibit cFMS activation in cells was determined by the following assay. THP-1 cells (human acute monocytic leukemia cell line) were serum-starved for 4 hours prior to treatment with compounds of Formula I for 1 hour. The concentration of compounds of Formula I was varied over a 9-point, 3-fold dilution series with 5,000 nM typically being the highest dose. Cell culture and treatment were carried out in a humidified 37° C., 5% CO2 incubator. Treated cells were stimulated with 250 ng/mL recombinant human MCSF for 1 minute to induce activation of cFMS. Cells were lysed in a manner which preserves phosphoproteins, and the lysate was analyzed by ELISA (R&D Systems, Human Phospho-M-CSF R DuoSet IC DYC3268), in which total cFMS protein in the lysate is captured and phosphotyrosine residues of cFMS are detected. A standard curve, made using purified phospho-M-CSF R protein, was used to quantify phospho-c-FMS in compound-treated wells. A standard 4-parameter logistic model was fit to the inhibitor dose response curves, with the IC50 being defined as the concentration of inhibitor giving 50 percent of control (POC).

A further assay concerns the target T3, c-KIT (Homo sapiens, UniProt P10721).
T3 construct: M-07e cells (human acute megakaryoblastic leukemia cell line) were serum-starved for 4 hours; endogenous in cells; host or cells: M-07e cells (human acute megakaryoblastic leukemia cell line)
In words: c-KIT Cell-Based Assay (Example D). As to conditions: averaged IC50; phospho-c-KIT in M-07e cells stimulated with 150 ng/ml recombinant human SCF; read-out: cKIT Cell ELISA IC50. As to the method: The ability of compounds of Formula I to inhibit c-KIT activation in cells was determined by the following assay. M-07e cells (human acute megakaryoblastic leukemia cell line) were serum-starved for 4 hours prior to treatment with compounds of Formula I for 1 hour. The concentration of compounds of Formula I was varied over a 9-point, 3-fold dilution series with 5,000 nM typically being the highest dose. Cell culture and treatment were carried out in a humidified 37° C., 5% CO2 incubator. Treated cells were stimulated with 150 ng/ml recombinant human SCF for 4 minutes to induce activation of c-KIT. Cells were lysed in a manner which preserves phosphoproteins, and the lysate was analyzed by ELISA (R&D Systems, Human Phospho-SCF R DuoSet IC DYC3527), in which total c-KIT protein in the lysate is captured and phosphotyrosine residues of c-Kit are detected. A standard curve, made using purified phospho-SCF R protein, was used to quantify phospho-c-KIT in compound-treated wells. A standard 4-parameter logistic model was fit to the inhibitor dose response curves, with the IC50 being defined as the concentration of inhibitor giving 50 percent of control (POC).

Structures can show the parent of a compound that is named as a salt.

T3 sequence (P10721 26-976): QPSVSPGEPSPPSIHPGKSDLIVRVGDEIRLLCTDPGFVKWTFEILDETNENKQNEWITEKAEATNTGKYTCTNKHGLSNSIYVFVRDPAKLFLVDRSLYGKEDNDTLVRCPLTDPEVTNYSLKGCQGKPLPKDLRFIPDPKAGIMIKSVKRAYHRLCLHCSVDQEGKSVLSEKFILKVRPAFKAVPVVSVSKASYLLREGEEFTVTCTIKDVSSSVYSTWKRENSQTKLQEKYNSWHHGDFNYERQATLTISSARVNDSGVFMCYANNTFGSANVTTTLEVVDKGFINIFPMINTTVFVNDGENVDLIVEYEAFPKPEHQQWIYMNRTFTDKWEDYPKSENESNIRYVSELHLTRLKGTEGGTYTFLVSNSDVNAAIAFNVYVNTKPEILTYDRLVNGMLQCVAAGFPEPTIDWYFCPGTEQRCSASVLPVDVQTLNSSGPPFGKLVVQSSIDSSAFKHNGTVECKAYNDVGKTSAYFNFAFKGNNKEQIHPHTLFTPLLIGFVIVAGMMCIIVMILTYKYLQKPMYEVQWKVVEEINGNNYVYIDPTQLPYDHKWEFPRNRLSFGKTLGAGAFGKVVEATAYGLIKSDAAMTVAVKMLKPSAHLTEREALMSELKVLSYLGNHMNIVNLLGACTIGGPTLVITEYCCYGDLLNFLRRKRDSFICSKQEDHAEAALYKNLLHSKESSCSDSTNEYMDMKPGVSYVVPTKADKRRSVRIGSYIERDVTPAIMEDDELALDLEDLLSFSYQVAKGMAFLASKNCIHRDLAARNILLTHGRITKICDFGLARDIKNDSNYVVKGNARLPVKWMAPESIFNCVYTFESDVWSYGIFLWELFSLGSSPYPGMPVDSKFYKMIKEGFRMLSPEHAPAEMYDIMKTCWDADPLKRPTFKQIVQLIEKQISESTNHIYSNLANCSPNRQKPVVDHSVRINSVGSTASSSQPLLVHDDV
T1 sequence (P09619 33-1106): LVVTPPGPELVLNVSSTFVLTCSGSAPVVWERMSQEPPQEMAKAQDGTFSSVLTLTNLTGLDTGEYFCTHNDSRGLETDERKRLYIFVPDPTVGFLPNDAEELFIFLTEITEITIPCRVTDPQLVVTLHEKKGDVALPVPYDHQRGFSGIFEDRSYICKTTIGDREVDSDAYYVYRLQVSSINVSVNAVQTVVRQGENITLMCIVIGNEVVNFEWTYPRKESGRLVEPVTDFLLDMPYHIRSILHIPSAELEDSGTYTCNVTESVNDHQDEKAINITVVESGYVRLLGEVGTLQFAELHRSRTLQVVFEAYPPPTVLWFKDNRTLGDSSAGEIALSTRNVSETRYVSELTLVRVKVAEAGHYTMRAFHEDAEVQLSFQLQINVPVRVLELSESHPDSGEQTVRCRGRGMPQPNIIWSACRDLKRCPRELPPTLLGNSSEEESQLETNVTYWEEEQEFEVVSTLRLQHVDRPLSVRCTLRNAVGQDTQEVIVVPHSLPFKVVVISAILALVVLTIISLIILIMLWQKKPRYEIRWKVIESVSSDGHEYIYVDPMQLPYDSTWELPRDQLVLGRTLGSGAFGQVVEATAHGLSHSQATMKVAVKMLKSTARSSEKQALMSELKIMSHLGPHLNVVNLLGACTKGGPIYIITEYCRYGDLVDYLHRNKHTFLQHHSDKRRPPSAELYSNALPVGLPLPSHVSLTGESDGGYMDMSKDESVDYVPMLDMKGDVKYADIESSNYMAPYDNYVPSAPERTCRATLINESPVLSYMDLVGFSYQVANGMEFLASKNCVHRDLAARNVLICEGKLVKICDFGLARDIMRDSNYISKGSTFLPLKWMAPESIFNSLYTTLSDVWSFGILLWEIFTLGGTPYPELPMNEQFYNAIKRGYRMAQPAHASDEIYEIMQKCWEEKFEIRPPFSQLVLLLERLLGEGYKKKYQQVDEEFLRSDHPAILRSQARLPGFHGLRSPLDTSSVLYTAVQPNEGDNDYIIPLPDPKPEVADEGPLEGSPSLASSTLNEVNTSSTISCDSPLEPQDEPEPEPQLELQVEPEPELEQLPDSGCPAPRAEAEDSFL
T2 sequence (P07333 20-972): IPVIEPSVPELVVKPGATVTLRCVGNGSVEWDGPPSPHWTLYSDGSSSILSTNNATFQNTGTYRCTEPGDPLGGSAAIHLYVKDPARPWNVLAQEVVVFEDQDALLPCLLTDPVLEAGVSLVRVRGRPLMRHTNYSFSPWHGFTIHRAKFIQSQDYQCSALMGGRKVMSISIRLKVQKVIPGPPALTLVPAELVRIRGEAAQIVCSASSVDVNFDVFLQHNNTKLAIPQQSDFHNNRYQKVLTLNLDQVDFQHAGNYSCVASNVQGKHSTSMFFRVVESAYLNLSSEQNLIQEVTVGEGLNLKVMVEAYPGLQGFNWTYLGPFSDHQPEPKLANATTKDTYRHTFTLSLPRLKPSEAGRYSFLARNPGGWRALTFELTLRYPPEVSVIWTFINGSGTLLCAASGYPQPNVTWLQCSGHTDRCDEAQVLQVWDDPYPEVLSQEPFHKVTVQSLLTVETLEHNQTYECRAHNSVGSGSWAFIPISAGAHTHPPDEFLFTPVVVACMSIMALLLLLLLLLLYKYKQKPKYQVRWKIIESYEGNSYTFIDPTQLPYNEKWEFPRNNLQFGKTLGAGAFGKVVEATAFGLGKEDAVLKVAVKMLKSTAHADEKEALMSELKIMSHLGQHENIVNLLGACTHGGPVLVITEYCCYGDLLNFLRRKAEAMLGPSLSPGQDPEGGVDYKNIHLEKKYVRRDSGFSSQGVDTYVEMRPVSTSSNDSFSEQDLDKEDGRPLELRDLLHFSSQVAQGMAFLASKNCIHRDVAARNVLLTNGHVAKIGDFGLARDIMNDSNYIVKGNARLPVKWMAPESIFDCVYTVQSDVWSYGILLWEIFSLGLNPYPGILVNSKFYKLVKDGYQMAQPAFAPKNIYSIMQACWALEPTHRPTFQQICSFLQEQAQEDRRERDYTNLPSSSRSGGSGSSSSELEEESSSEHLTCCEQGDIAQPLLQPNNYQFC

As to `Cc1nn(Cc2ccn(C(C)C)n2)c2cccc(NC(=O)c3cnc4cc(OCCN5CCN(C(C)C)CC5)ccn34)c12` [Example 49, N-(1-((1-isopropyl-1H-pyrazol-3-yl)methyl)-3-methyl-1H-indazol-4-yl)-7-(2-(4-isopropylpiperazin-1-yl)ethoxy)imidazo[1,2-a]pyridine-3-carboxamide], the IC50 turned out to be 9.7 nM against PDGFR beta, 11.8 nM on cFMS and 53.5 nM on c-KIT.
For `N#Cc1ccc2ncc(C(=O)Nc3cccc4c3cnn4Cc3ccccc3)n2c1` [Example 154, N-(1-benzyl-1H-indazol-4-yl)-6-cyanoimidazo[1,2-a]pyridine-3-carboxamide] the same measures were 186 nM, 143 nM and 150 nM.
Consider `CCOc1cccc(Cn2nc(C)c3c(NC(=O)c4cnc5cc(OCCN6CCN(C)CC6)ccn45)cccc32)n1` [Example 86, N-(1-((6-ethoxypyridin-2-yl)methyl)-3-methyl-1H-indazol-4-yl)-7-(2-(4-methylpiperazin-1-yl)ethoxy)imidazo[1,2-a]pyridine-3-carboxamide], for which the IC50 came out at 117 nM at PDGFR beta, 7 nM on cFMS and 314 nM on c-KIT.
On to `Cc1cccc(Cn2nc(C)c3c(NC(=O)c4cnc5ccccn45)cccc32)n1` [Example 61, N-(3-methyl-1-((6-methylpyridin-2-yl)methyl)-1H-indazol-4-yl)imidazo[1,2-a]pyridine-3-carboxamide], for which the IC50 against PDGFR beta was 222 nM; on cFMS, 58.1 nM; on c-KIT it was 527 nM.
On to `CN1CCN(CCOc2ccn3c(C(=O)Nc4cccc5c4cnn5Cc4cccc(C#N)c4)cnc3c2)CC1` [Example 99, N-(1-(3-cyanobenzyl)-1H-indazol-4-yl)-7-(2-(4-methylpiperazin-1-yl)ethoxy)imidazo[1,2-a]pyridine-3-carboxamide], for which the IC50 against PDGFR beta turned out to be 6.4 nM; on cFMS, 5.6 nM; at c-KIT, 11.4 nM.
As for `Cc1cccc(Cn2nc(C)c3c(NC(=O)c4cnc5cc(OCCN6CCOCC6)ccn45)cccc32)n1` [Example 59, N-(3-methyl-1-((6-methylpyridin-2-yl)methyl)-1H-indazol-4-yl)-7-(2-morpholinoethoxy)imidazo[1,2-a]pyridine-3-carboxamide], the figures for the IC50 on PDGFR beta, at cFMS and at c-KIT were 19.3 nM, 19.4 nM and 1490 nM, respectively.
For the molecule `COCCOc1ccn2c(C(=O)Nc3cccc4c3cnn4Cc3cccnc3)cnc2c1` [Example 121, 7-(2-methoxyethoxy)-N-(1-(pyridin-3-ylmethyl)-1H-indazol-4-yl)imidazo[1,2-a]pyridine-3-carboxamide], the IC50 stood at 13.3 nM at PDGFR beta, 20.9 nM on cFMS and 73.1 nM at c-KIT.
As to `Cc1nn(Cc2cc(C)n(C(C)C)n2)c2cccc(NC(=O)c3cnc4cc(OCCN5C[C@@H](C)N(C)[C@@H](C)C5)ccn34)c12` [Example 9, N-(1-((1-isopropyl-5-methyl-1H-pyrazol-3-yl)methyl)-3-methyl-1H-indazol-4-yl)-7-(2-((3S,5R)-3,4,5-trimethylpiperazin-1-yl)ethoxy)imidazo[1,2-a]pyridine-3-carboxamide], the IC50 at PDGFR beta was 166 nM; at cFMS it was 21.2 nM; at c-KIT it was 143 nM.
As for `COc1ccn2c(C(=O)Nc3cccc4c3cnn4Cc3ccccc3)cnc2c1` [Example 125, N-(1-benzyl-1H-indazol-4-yl)-7-methoxyimidazo[1,2-a]pyridine-3-carboxamide], the IC50 amounted to 2.1 nM against PDGFR beta, 12.5 nM on cFMS and 19.8 nM on c-KIT.
Turning to `Cc1cccc(Cn2ncc3c(NC(=O)c4cnc5cc(OCCN6CCN(C)CC6)ccn45)ccc(Cl)c32)n1` [Example 101, N-(7-chloro-1-((6-methylpyridin-2-yl)methyl)-1H-indazol-4-yl)-7-(2-(4-methylpiperazin-1-yl)ethoxy)imidazo[1,2-a]pyridine-3-carboxamide trihydrochloride], the IC50 against PDGFR beta is 23.7 nM; on cFMS, 43.6 nM; at c-KIT, 30.5 nM.

Source of the values: patent US10669269B2, “Substituted N-(1H-indazol-4-yl)imidazo[1,2-a]pyridine-3-carboxamide compounds as type III receptor tyrosine kinase inhibitors” (ARRAY BIOPHARMA INC., priority 2010, dated 2020).
